This is an account of results in ChEMBL document CHEMBL5120757, “Strategies Targeting Protein Tyrosine Phosphatase SHP2 for Cancer Therapy” (J Med Chem, 2022).

The structures appear in SMILES notation.

The target in assay [1] is T1, Tyrosine-protein phosphatase non-receptor type 11 (Homo sapiens, UniProt Q06124).
T1 sequence (Q06124 whole entry): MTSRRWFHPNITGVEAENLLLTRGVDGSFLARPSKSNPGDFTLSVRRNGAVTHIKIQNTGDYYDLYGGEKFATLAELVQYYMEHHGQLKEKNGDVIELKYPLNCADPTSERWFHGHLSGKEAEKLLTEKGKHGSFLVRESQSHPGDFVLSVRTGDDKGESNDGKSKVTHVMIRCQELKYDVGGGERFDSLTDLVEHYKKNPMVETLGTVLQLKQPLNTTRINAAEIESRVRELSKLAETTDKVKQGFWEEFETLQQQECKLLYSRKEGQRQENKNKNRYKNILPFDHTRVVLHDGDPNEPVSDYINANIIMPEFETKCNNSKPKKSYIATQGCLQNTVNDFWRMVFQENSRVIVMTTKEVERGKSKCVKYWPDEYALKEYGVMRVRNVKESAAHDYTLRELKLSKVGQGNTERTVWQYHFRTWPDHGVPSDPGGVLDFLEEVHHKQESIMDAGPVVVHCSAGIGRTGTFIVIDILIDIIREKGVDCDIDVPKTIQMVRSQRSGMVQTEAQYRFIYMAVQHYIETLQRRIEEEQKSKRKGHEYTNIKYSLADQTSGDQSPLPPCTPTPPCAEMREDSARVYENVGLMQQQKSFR
Kind of assay: Inhibition of SHP2 (unknown origin).

The target in assay [2] is T1, Tyrosine-protein phosphatase non-receptor type 11. Kind of assay: Degradation of wildtype SHP2 in human MV411 cells. Format: cell-based. The settings on record: mv4-11.
The target in assay [3] is Tyrosine-protein phosphatase non-receptor type 11 (Homo sapiens, UniProt Q06124, F285S). Kind of assay: Inhibition of SHP2 F285S mutant (unknown origin) using DiFMUP as substrate incubated for 1 hr followed by substrate addition measured after 30 mins by plate reader method.
Assay [4] deals with T1, Tyrosine-protein phosphatase non-receptor type 11. Kind of assay: Inhibition of wildtype SHP2 (unknown origin).

Chain of Tyrosine-protein phosphatase non-receptor type 11 (Homo sapiens, UniProt Q06124, F285S) (Q06124 2-593 F285S limits assumed): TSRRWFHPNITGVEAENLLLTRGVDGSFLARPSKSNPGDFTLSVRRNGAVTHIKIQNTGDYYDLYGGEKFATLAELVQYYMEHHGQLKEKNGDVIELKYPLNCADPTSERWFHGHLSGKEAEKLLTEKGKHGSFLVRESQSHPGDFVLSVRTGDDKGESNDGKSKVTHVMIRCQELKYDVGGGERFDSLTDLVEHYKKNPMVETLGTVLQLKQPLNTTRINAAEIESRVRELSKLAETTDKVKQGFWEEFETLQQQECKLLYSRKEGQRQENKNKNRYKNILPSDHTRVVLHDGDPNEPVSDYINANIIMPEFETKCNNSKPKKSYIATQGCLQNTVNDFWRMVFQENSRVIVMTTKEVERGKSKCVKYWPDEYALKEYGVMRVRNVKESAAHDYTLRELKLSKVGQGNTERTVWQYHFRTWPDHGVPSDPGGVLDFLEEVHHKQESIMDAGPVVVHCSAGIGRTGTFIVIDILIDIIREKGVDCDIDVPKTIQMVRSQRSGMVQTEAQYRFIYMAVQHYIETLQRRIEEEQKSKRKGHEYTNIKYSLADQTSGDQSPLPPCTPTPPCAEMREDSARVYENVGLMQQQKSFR

On to `COC(=O)c1cc(NC2=NC(=O)/C(=C/c3ccc(C)cc3)S2)ccc1O`, for which the half-maximal inhibitory concentration (IC50) in assay [1] worked out at 0.05 µM. In the case of `C[C@@H]1OCC2(CCN(c3cnc(Sc4cccc(NC(=O)CCC(=O)NCCCOCCOCCOCCCNc5cccc6c5C(=O)N(C5CCC(=O)NC5=O)C6=O)c4Cl)c(N)n3)CC2)[C@@H]1N` (some centres not stated), in assay [2], the 50% degradation concentration (DC50) is 0.006 µM. `Cc1nc(N2CCC3(CC2)CO[C@@H](C)[C@H]3N)cnc1-c1ccc(OCCOCCOCCCOCCCOCCCOCCCOCCOCCNCC(=O)COc2cccc3c2C(=O)N(C2CCC(=O)NC2=O)C3=O)c(Cl)c1Cl` (some centres not stated): 0.0225 µM corresponded to half-maximal inhibition in assay [3] (IC50). `C=C/C(=C/C(=O)C[C@H](C)C[C@@H](C)CC[C@H](O)[C@H](C)C(=O)C[C@@H](O)[C@H](C)[C@@H](C)OC(=O)C[C@@H](O)/C(C(=O)O)=C(\C)C(=O)O)CC` came in with an IC50 in assay [1] of 29 µM. `CC1(NCc2cn(CCOCCOCCOCCOCCNc3cccc4c3C(=O)N(C3CCC(=O)NC3=O)C4=O)nn2)CCN(c2cnc(-c3cccc(Cl)c3Cl)c(N)n2)CC1` (configuration not stated) registered an IC50 in assay [4] of 0.714 µM. For `NC(=O)c1cc[n+](CC2=C(C(=O)O)N3C(=O)[C@@H](NC(=O)[C@@H](c4ccccc4)S(=O)(=O)O)[C@@H]3SC2)cc1`, the IC50 in assay [1] turned out to be 16.8 µM. Compound `O=C(O)c1cc(O)c(=O)c2c(O)c(O)ccc2c1` [7-DESHYDROXYPYROGALLIN-4-CARBOXYLIC ACID] displayed an IC50 in assay [1] of 2.1 µM.

The term IC50 denotes the concentration at which inhibition is half-maximal. Low values mean greater potency, high ones weaker potency. Usually DC50 stands for the concentration giving 50% degradation. Read a high DC50 as degradation only at high concentration.
